According to article PMC8321240, “Cell-Type-Specific High Throughput Toxicity Testing in Human Midbrain Organoids” (Frontiers in Molecular Neuroscience, 2021):
pIC50: −log10 of the molar value. Entries after “also recorded” stand apart in the source; their conditions may differ.

How the values were obtained:
[1] = tested on: automated midbrain organoids (AMOs); experiment: Viability of 3D AMOs (CellTiter-Glo 3D) in the 2D vs 3D comparison; type: cell-based, human; conditions: for pIC50: Homo sapiens, 48 h exposure from day 50
Experimental: We cultured AMOs for 47 days in our automated system as described above. On day 47, we exchanged the organoid medium to a minimal tox medium (TM, consisting of DMEM/F-12 with 1% N2 supplement and 1% penicillin/streptomycin/glutamine) to reduce possible interference from antioxidants in the B27 media supplement. The next day, we treated the AMOs with the compounds from the library at a concentration of 100 μM in TM with some deviations due to solubility (see Supplementary Table 1 for a complete list of compounds including their final concentrations in the screen). DMSO control samples contained 0.5% (v/v) DMSO, which is equivalent to the amount of solvent in the samples that received compound treatment. After 48 h of incubation with the compounds, we either directly processed the organoids for the 48-h time point or renewed the compounds in TM once to achieve 96 h of incubation. Following either 48 or 96 h of compound incubation, we used the CellTiter-Glo 3D cell viability assay (Promega) to measure the viability of individual organoids, as previously described (Renner et al., [2020]). Briefly, the 96-well plates of AMOs and the reagents were brought to room temperature for 30 min. We adjusted the media volume of each well to 55 μl and added an equal volume (55 μl) of the CellTiter-Glo 3D reagent. Next, the samples were shaken on a Thermomixer (Eppendorf) at 900 rpm for 5 min and then incubated for 25 min at room temperature while protected from light. To minimize signal cross-talk between adjacent wells, we transferred the contents of the clear 96-well culture plates to white/opaque 384-well Lumitrac plates (Greiner) with two technical replicates (20 μl each) per sample, after the incubation. We recorded the luminescence immediately after the transfer using a Synergy Mx plate reader (BioTek). We outputted the results to Microsoft Excel for reformatting and then transferred them to GraphPad Prism v9.0.1 (Graphpad Software, Inc.) for plotting and statistical analysis.
To compare the toxic effects of compounds on AMOs and 2D-cultured midbrain dopaminergic neurons, we seeded and cultured both in parallel and generated them from the same smNPC starting cell population. For 2D dopaminergic neuron differentiation, smNPCs were seeded in 1% (v/v in KO-DMEM/F-12) Matrigel-coated 6-well plates and standard smNPC medium, following digestion by accutase as described above. From day 2 onwards, they were treated identically with the AMOs (i.e., they received the same media at the same timepoints). To work with the 2D dopaminergic neurons in a screening setting (and have the same plate format as the AMOs), we reseeded them to flat-bottom 96-well plates (“μCLEAR”, black, Greiner) at a density of 70,000 cells/well on day 48. On day 49, the medium of both 2D mDA neurons and 3D AMOs was exchanged to tox medium. The next day, we treated them with different concentrations (0.01, 0.1, 1, 10, 50, 100, 200, 500, and 1,000 μM; controls received the corresponding solvent at an amount equivalent to the highest compound concentration; n = 6 per concentration) of the compounds lindane (Sigma-Aldrich, in ethanol) and 6-hydroxydopamine hydrochloride (Sigma Aldrich, in DMSO) in tox medium. After 48 h of incubation, we measured the samples’ viability. For the AMOs, we used the CellTiter-Glo 3D cell viability assay as described above. We measured the 2D mDA neuron viability with the CellTiter-Glo 2.0 cell viability assay (Promega) according to the manufacturer’s instructions. In short, we brought the sample plates and reagents to room temperature for 30 min. We adjusted the media volume of the samples to 50 μl and added an equal volume (50 μl) of the CellTiter-Glo 2.0 reagent. We let the plate shake for 2 min at 900 rpm on a Thermomixer and then incubated them for 10 min at room temperature and protected from light. Immediately afterward, we measured the luminescence on a Synergy Mx plate reader. […]

[2] = tested on: 2D-cultured midbrain dopaminergic (mDA) neurons; experiment: Viability of 2D-cultured mDA neurons (CellTiter-Glo 2.0) in the 2D vs 3D comparison; type: cell-based; conditions: Homo sapiens, Neuron, 2D mDA neurons, 48 h exposure from day 50
Experimental: To compare the toxic effects of compounds on AMOs and 2D-cultured midbrain dopaminergic neurons, we seeded and cultured both in parallel and generated them from the same smNPC starting cell population. For 2D dopaminergic neuron differentiation, smNPCs were seeded in 1% (v/v in KO-DMEM/F-12) Matrigel-coated 6-well plates and standard smNPC medium, following digestion by accutase as described above. From day 2 onwards, they were treated identically with the AMOs (i.e., they received the same media at the same timepoints). To work with the 2D dopaminergic neurons in a screening setting (and have the same plate format as the AMOs), we reseeded them to flat-bottom 96-well plates (“μCLEAR”, black, Greiner) at a density of 70,000 cells/well on day 48. On day 49, the medium of both 2D mDA neurons and 3D AMOs was exchanged to tox medium. The next day, we treated them with different concentrations (0.01, 0.1, 1, 10, 50, 100, 200, 500, and 1,000 μM; controls received the corresponding solvent at an amount equivalent to the highest compound concentration; n = 6 per concentration) of the compounds lindane (Sigma-Aldrich, in ethanol) and 6-hydroxydopamine hydrochloride (Sigma Aldrich, in DMSO) in tox medium. After 48 h of incubation, we measured the samples’ viability. For the AMOs, we used the CellTiter-Glo 3D cell viability assay as described above. We measured the 2D mDA neuron viability with the CellTiter-Glo 2.0 cell viability assay (Promega) according to the manufacturer’s instructions. In short, we brought the sample plates and reagents to room temperature for 30 min. We adjusted the media volume of the samples to 50 μl and added an equal volume (50 μl) of the CellTiter-Glo 2.0 reagent. We let the plate shake for 2 min at 900 rpm on a Thermomixer and then incubated them for 10 min at room temperature and protected from light. Immediately afterward, we measured the luminescence on a Synergy Mx plate reader. We outputted the results to Microsoft Excel and GraphPad Prism v9.0.1 for reformatting, plotting, and analysis. Data processing was performed as outlined for the CellTiter-Glo 3D-based viability assay above, except for the averaging of technical replicates, as measurements were performed directly in the culture plate without additional technical replicates.
All other data analysis steps including the statistical analysis to identify significant differences in toxicity between 2D and 3D (via multiple unpaired t-tests with the same parameters as above, corrected for using the Bonferroni-Dunn method, and considering padj <0.05 as significant), as well as dose-response curve fitting, were performed as described in detail above. The IC50 values were taken from the same regression/analysis as the dose-response curves.

[3] = tested on: automated midbrain organoids (AMOs); experiment: Dose-response analysis, ATP-based overall AMO viability; type: cell-based, human; conditions: 48 h + 6 days; for viability: 0.01-1,000 μM (rotenone up to 100 μM), both AMO lines
Experimental: AMOs were cultured as described above for 47 days. On day 47, we exchanged their medium to tox medium (TM), initially without the addition of any compounds. […] For each compound, we included n = 8 controls per compound treated with the corresponding solvent at an amount equivalent to the highest compound concentration. To assess viability and cell type-specific toxicity in parallel and under the same conditions, we treated all samples with the compounds for 48 h, then exchanged their medium to standard culture medium without compounds and maintained them for an additional 6 days before analysis to allow breakdown and removal of cellular debris. Organoid viability and cell type-specific toxicity were analyzed as described for the primary screens. Here, we acquired five confocal planes spaced 36.6 μm apart in our Operetta high content imager. The image analysis of the AMOs for cell type-specific toxicity assessment required minor adjustments to account for the individual properties of the staining. […] For Map2, we performed Gaussian smoothing with a width of 10 px and omitted the additional sliding parabola filter. The other steps were performed as outlined for the primary cell-type-specific toxicity screen. […] In detail: The dose-response series, including the individual solvent controls, was performed for every compound on a separate 96-well plate of AMOs with initially n = 8 organoids per concentration. […] Data processing, including normalizations, was performed for each individual compound/plate as outlined above for the primary screens. Significant differences between the Map2 and TH content were also determined in GraphPad Prism as described for the primary screen and with the same parameters (multiple comparisons were performed for the different concentrations instead of compounds).

[4] = tested on: TH+ dopaminergic and Map2+ general neurons in AMOs; experiment: Dose-response analysis, TH and Map2 content by high content imaging; type: cell-based, human; conditions: 48 h + 6 days; for Map2 content (general neurons) / TH content (dopaminergic neurons): 0.01-1,000 μM (rotenone up to 100 μM), both AMO lines; for TH levels compared to Map2 levels: dose-response, padj < 0.05
Experimental: All processing steps were conducted in an HTS-compatible automated liquid handling system (ALHS, a Biomek FXP liquid handling station). To quantify different cellular subpopulations within the AMOs, we employed our previously described (Renner et al., [2020], [2021b]) ALHS-compatible workflow for combined whole-mount staining and clearing, with minor modifications. We fixed the AMOs with 4% PFA (VWR) for 10–15 min and stained the entire aggregates with primary and secondary antibodies for 6 days each. The antibodies used in this study were as follows. Primary: mouse anti-Map2 (1:1,000, Merck Millipore, cat#: MAB3418) and rabbit anti-TH (1:500, Abcam, cat#: ab112). Secondary: donkey anti-mouse IgG, Alexa Fluor 488 conjugated (1:1,000, Thermo Fisher, cat#: A-21202) and donkey anti-rabbit IgG, Alexa Fluor 647 conjugated (1:1,000, Thermo Fisher, cat#: A-31573). The antibodies were diluted in blocking and permeabilization solution consisting of 6% BSA, 0.5% Triton-X 100 (Roth), 0.1% (w/v) sodium azide (Sigma-Aldrich) in PBS (Sigma-Aldrich) and immediately added after fixation following a triple rinse with PBS. We renewed the antibody solutions once after three days. As a nuclear counter stain, we added DAPI (1 μg/ml, Sigma-Aldrich) to the solution containing the secondary antibodies. Between primary and secondary antibody application and after finishing the secondary antibody incubation, we washed the samples overnight with 0.1% Triton X-100 in PBS, with a total of five exchanges of the washing solution. After the whole-mount staining, we performed BABB-based tissue clearing (Dent et al., [1989]) to allow image acquisition with single-cell resolution of the entire aggregates. For this purpose, we first dehydrated the AMOs via a stepwise methanol (Roth) series (25%, 50%, 70%, 90%, and 100%, each for 15 min). For clearing and imaging, we transferred them to organic solvent-resistant cyclo-olefin 96-well flat-bottom plates (“Screenstar”, Greiner Bio-One). Finally, we incubated the samples for 30 min in 1:1 (v/v) methanol/BABB (BABB consisted of benzyl alcohol (Sigma-Aldrich) and benzyl benzoate (Sigma-Aldrich) at a 1:1 (v/v) ratio) and then kept them in 100% BABB in the dark for storage and subsequent automated high content confocal fluorescent analysis.
We prepared and treated the AMOs with the compounds as described for the primary viability screen. On day 50, after 48 h of compound incubation, we replaced the medium with standard AMO medium and maintained the AMOs for 6 additional days under standard culture conditions. This additional time allows the cells killed by the compounds to be cleared from the aggregates. After the 6 days, we fixed the organoids with 4% PFA, whole-mount-stained them for TH and Map2, and tissue-cleared them as described above. To achieve uniform aggregate positioning within the wells before imaging, we tilted the plates off the horizontal plane at 60 degrees for a minimum of 5 min. We performed automated image acquisition of entire 96-well plates on an Operetta high content imager (Perkin Elmer) and analyzed images in the Harmony 4.1 software and/or Columbus version 2.6.0 as previously described (Renner et al., [2020]), with adjustments to account for the individual properties of the staining and samples. We acquired three medial planes for each organoid, spaced 36.6 μm apart to avoid double-sampling individual morphological features. For the analysis, we defined the organoid region in each image by summing all channels, removed small localized features with a median filter (10 px), and identified putative organoids/regions of interest (ROIs) with the “find image region” function. To identify bona fide AMOs and exclude image artifacts and dust, we selected the ROIs with an area >9,000 μm^2, roundness >0.4, and mean DAPI intensity >190 arbitrary brightness units (abu).

[5] = tested on: TH+ dopaminergic and Map2+ general neurons in AMOs; experiment: Primary cell-type-specific toxicity screen (whole-mount TH/Map2 staining, high content imaging); type: cell-based, human; conditions: approx. 100 μM, 48 h + 6 days, shared between both AMO lines, padj < 0.05
Experimental: All processing steps were conducted in an HTS-compatible automated liquid handling system (ALHS, a Biomek FXP liquid handling station). To quantify different cellular subpopulations within the AMOs, we employed our previously described (Renner et al., [2020], [2021b]) ALHS-compatible workflow for combined whole-mount staining and clearing, with minor modifications. We fixed the AMOs with 4% PFA (VWR) for 10–15 min and stained the entire aggregates with primary and secondary antibodies for 6 days each. The antibodies used in this study were as follows. Primary: mouse anti-Map2 (1:1,000, Merck Millipore, cat#: MAB3418) and rabbit anti-TH (1:500, Abcam, cat#: ab112). Secondary: donkey anti-mouse IgG, Alexa Fluor 488 conjugated (1:1,000, Thermo Fisher, cat#: A-21202) and donkey anti-rabbit IgG, Alexa Fluor 647 conjugated (1:1,000, Thermo Fisher, cat#: A-31573). The antibodies were diluted in blocking and permeabilization solution consisting of 6% BSA, 0.5% Triton-X 100 (Roth), 0.1% (w/v) sodium azide (Sigma-Aldrich) in PBS (Sigma-Aldrich) and immediately added after fixation following a triple rinse with PBS. We renewed the antibody solutions once after three days. As a nuclear counter stain, we added DAPI (1 μg/ml, Sigma-Aldrich) to the solution containing the secondary antibodies. Between primary and secondary antibody application and after finishing the secondary antibody incubation, we washed the samples overnight with 0.1% Triton X-100 in PBS, with a total of five exchanges of the washing solution. […]
We prepared and treated the AMOs with the compounds as described for the primary viability screen. […] We performed automated image acquisition of entire 96-well plates on an Operetta high content imager (Perkin Elmer) and analyzed images in the Harmony 4.1 software and/or Columbus version 2.6.0 as previously described (Renner et al., [2020]), with adjustments to account for the individual properties of the staining and samples. […]

[6] = tested on: automated midbrain organoids (AMOs); experiment: Primary organoid viability screen (ATP-based CellTiter-Glo 3D); type: cell-based, human; conditions: approx. 100 μM, 48 or 96 h, two AMO lines
Experimental: We cultured AMOs for 47 days in our automated system as described above. On day 47, we exchanged the organoid medium to a minimal tox medium (TM, consisting of DMEM/F-12 with 1% N2 supplement and 1% penicillin/streptomycin/glutamine) to reduce possible interference from antioxidants in the B27 media supplement. The next day, we treated the AMOs with the compounds from the library at a concentration of 100 μM in TM with some deviations due to solubility (see Supplementary Table 1 for a complete list of compounds including their final concentrations in the screen). DMSO control samples contained 0.5% (v/v) DMSO, which is equivalent to the amount of solvent in the samples that received compound treatment. After 48 h of incubation with the compounds, we either directly processed the organoids for the 48-h time point or renewed the compounds in TM once to achieve 96 h of incubation. […] We recorded the luminescence immediately after the transfer using a Synergy Mx plate reader (BioTek). […]
In detail: All compounds including their controls were arrayed on a single 96-well plate (see Supplementary Table 1 for well positions), and replicated across three plates for a total of n = 3 replicates per condition (except AMO line 2 at 48 h n = 2). […] During our analysis, we first averaged the two technical replicates from the luminescence measurement in Microsoft Excel, yielding one averaged luminescence value for each well of the original 96-well AMO plates. Then, we normalized the luminescence detected in each well to the mean luminescence of the four DMSO controls of the same plate to get a relative organoid viability value. Normalization was performed separately for each plate to account for and correct for potential differences during the luminescence measurements. […] We further assessed the homogeneity of the AMOs by calculating the coefficient of variation (CV) for the relative viabilities of the DMSO controls (i.e., we divided the standard deviations by the corresponding means and averaged the resulting CV values for the DMSO controls). […]

Compound | Map2 content (general neurons) [4] | TH content (dopaminergic neurons) [4] | significant difference in reduction between TH and Map2 (dopaminergic neuron-specific toxicity) [5] | viability [3] | TH levels compared to Map2 levels [4] | other results
Cl.NCCc1cc(O)c(O)cc1O [6OHDA, 6-hydroxydopamine hydrochloride, reference compound] |  |  |  |  |  | pIC50 ([1]; AMO line 1, 3D): 3.50; pIC50 ([1]; AMO line 2, 3D): 3.57; toxicity in 3D AMOs compared with 2D-cultured dopaminergic neurons ([1]; both cell lines, 48 h, 0.01-1,000 μM, padj < 0.05): significantly stronger toxic effect in 2D than 3D; pIC50 ([2]; AMO line 1 cell line): 4.35; pIC50 ([2]; AMO line 2 cell line): 4.19
CC(=O)Oc1ccccc1C(=O)O [ASS, acetylsalicylic acid, reference compound] | no impact | no impact |  |  |  | overall toxicity in the dose-response experiments ([3]; 0.01-1,000 μM, viability, Map2 and TH readouts): no significant changes at any of the tested concentrations; also recorded: non-toxic across all tested concentrations
COc1ccc2cc3[n+](cc2c1OC)CCc1cc2c(cc1-3)OCO2 [BC, berberine chloride] | strongly reduced | strongly reduced | statistically significant difference in reduction between TH and Map2 | strongly reduced | significantly reduced TH levels compared to Map2 over a broad range of concentrations | 
Oc1c(Cl)cc(Cl)c(Cl)c1Cc1c(O)c(Cl)cc(Cl)c1Cl [HCP, hexachlorophene] | strongly reduced | strongly reduced |  | strongly reduced |  | toxicity in the primary screens [6]: highly toxic
CC(C)(c1cc(Br)c(O)c(Br)c1)c1cc(Br)c(O)c(Br)c1 [TBBPA, 3,3′,5,5′-tetrabromobisphenol A] | strongly reduced | strongly reduced | statistically significant difference in reduction between TH and Map2 | strongly reduced | significantly reduced TH levels compared to Map2 over a broad range of concentrations | 
[CH3][Hg][Cl] [methyl mercuric (II) chloride] |  |  | statistically significant difference in reduction between TH and Map2 |  |  | 
C=C(C)[C@H]1Cc2c(ccc3c2O[C@@H]2COc4cc(OC)c(OC)cc4[C@@H]2C3=O)O1 [rotenone, reference compound] |  |  |  |  | significantly reduced TH levels compared to Map2 over a broad range of concentrations | 
